According to patent US20250248979A1, “NOVEL GPX4 INHIBITORS AND USES THEREOF” (THE TRUSTEES OF COLUMBIA UNIVERSITY IN THE CITY OF NEW YORK, priority 2022, published 2025):
“Also recorded” adds a separate entry of the source.

The molecules below were run on HT-1080 cells (assay: Cellular dose response assay, HT-1080 with and without Fer-1). Conditions: RSL3 as control.
Format: cell-based, human
Source text: (§1) HT-1080 (human [Homo sapiens] […] fibrosarcoma), A-673 (human [Homo sapiens] […] Ewing's sarcoma), and SK-HEP-1 (human [Homo sapiens] […] hepatic adenocarcinoma), cells were obtained from ATCC. Huh7 (human [Homo sapiens] […] hepatocellular carcinoma), HLF (human [Homo sapiens] […] hepatocellular carcinoma), HepG2 (human [Homo sapiens] […] hepatocellular carcinoma), cells were obtained from the Cancer Cell Bank at Columbia University Irving Medical Center. HT-1080, A-673, Huh-7, and HLF cells were grown in Dulbecco's Modified Eagle Medium (DMEM) supplemented with 10% heat inactivated fetal bovine serum (HI-FBS), 1% non-essential amino acids, and 1% penicillin streptomycin. HepG2 and SK-HEP-1 cells were grown in Eagle's Minimum Essential Medium (EMEM) supplemented with 10% HI-FBS, and 1% penicillin-streptomycin. All cells were cultured at 37° C. and 5% CO2.
(§2) HT-1080, HepG2, Huh7, HLF, and SK-HEP-1 cells were seeded into opaque white 384-well plates at 1500 cells per well then incubated at 37° C. with 5% CO2 overnight. The next day, compounds of interest were dissolved in DMSO and 12-point 2-fold dilution series were prepared with and without Fer-1. Cells were treated in triplicate (final DMSO concentration of 0.4% in all wells, including DMSO-only control wells) and incubated for a further 48 hours at 37° C. and 5% CO2. Cell viability was evaluated using CellTiter-Glo (Promega G7573) and luminescence was recorded on a Victor 5 plate reader. Data were analyzed in GraphPad Prism 9 and error bars represent standard deviation values for three technical replicates in a representative experiment.

| Compound | ferroptosis induction / potency in HT-1080 cells, result in words |
| --- | --- |
| COc1ccc(-c2ccc3c(C(=O)NC(C)(C)COC(=O)CCl)nn(Cc4ccc(Cl)cc4)c3c2)cc1Cl [QW-823] | good potency in cell and selectivity to GPX4; also recorded: outstanding cytotoxicity with sub-molar scale |
| CC(C)(COC(=O)CCl)NC(=O)c1nn(Cc2ccc(Cl)cc2)c2cc(-c3ccc(N4CCOCC4)c(Cl)c3)ccc12 [QW-824] | good potency in cell and selectivity to GPX4; also recorded: outstanding cytotoxicity with sub-molar scale |
| CC(C)Oc1ccc(-c2ccc3c(C(=O)NC(C)(C)COC(=O)CCl)nn(Cc4ccc(Cl)cc4)c3c2)cc1Cl [QW-841] | outstanding cytotoxicity with sub-molar scale |

Same assay, conditions: benzyl vs methyl on the indazole

| Compound | fold change in potency in the cell viability assay, QW-851 vs QW-446 [fold] |
| --- | --- |
| COc1ccc(-c2ccc3c(C(=O)NC(C)(C)COC(=O)CCl)nn(Cc4cc(Cl)cc(Cl)c4)c3c2)cc1Cl [QW-851] | 10 |

Same assay, conditions: compounds alone; Table 7; read-out: IC50 (uM) HT1080^a

| IC50 [µM] | Compound |
| --- | --- |
| 4 | COc1ccc2cc(C(=O)NCC(C)(C)COC(=O)CBr)[nH]c2c1 [QW-303] |

Same assay, conditions: ferroptosis selectivity, IC50 with Fer-1 / IC50

| Compound | Selectivity |
| --- | --- |
| COc1ccc(-c2ccc3c(C(=O)NC(C)(C)COC(=O)CCl)nn(Cc4ccc(Cl)cc4)c3c2)cc1Cl [QW-823] | 34.5 |
| CC(C)(COC(=O)CCl)NC(=O)c1nn(Cc2ccc(Cl)cc2)c2cc(-c3ccc(N4CCOCC4)c(Cl)c3)ccc12 [QW-824] | >220 |
| CC(C)Oc1ccc(-c2ccc3c(C(=O)NC(C)(C)COC(=O)CCl)nn(Cc4ccc(Cl)cc4)c3c2)cc1Cl [QW-841] | 38.5 |
| COc1ccc(-c2ccc3c(C(=O)NC(C)(C)COC(=O)CCl)nn(Cc4cc(Cl)cc(Cl)c4)c3c2)cc1Cl [QW-851] | >920 |

Same assay, conditions: read-out: IC50 against HT1080 cell lines

| Compound | IC50 [µM] |
| --- | --- |
| COc1ccc(-c2ccc3c(C(=O)NC(C)(C)COC(=O)CCl)nn(Cc4cc(Cl)cc(Cl)c4)c3c2)cc1Cl [QW-851] | 0.0435 |

Same assay, conditions: with Fer-1; Table 10; read-out: IC50 (μM) HT1080 + Fer-1

| Compound | IC50 [µM] |
| --- | --- |
| COc1ccc(-c2ccc3c(C(=O)NC(C)(C)COC(=O)CCl)nn(Cc4ccc(Cl)cc4)c3c2)cc1Cl [QW-823] | 11.4 |
| CC(C)(COC(=O)CCl)NC(=O)c1nn(Cc2ccc(Cl)cc2)c2cc(-c3ccc(N4CCOCC4)c(Cl)c3)ccc12 [QW-824] | > 40 |
| CC(C)Oc1ccc(-c2ccc3c(C(=O)NC(C)(C)COC(=O)CCl)nn(Cc4ccc(Cl)cc4)c3c2)cc1Cl [QW-841] | 28.5 |
| COc1ccc(-c2ccc3c(C(=O)NC(C)(C)COC(=O)CCl)nn(Cc4cc(Cl)cc(Cl)c4)c3c2)cc1Cl [QW-851] | > 40 |

Same assay, conditions: with fer-1; Table 7; read-out: IC50 (uM) HT1080^b

| IC50 [µM] | Compound |
| --- | --- |
| 6.1 | COc1ccc2cc(C(=O)NCC(C)(C)COC(=O)CBr)[nH]c2c1 [QW-303] |

Same assay, conditions: without Fer-1; Table 10; read-out: IC50 (μM) HT1080

| Compound | IC50 [µM] |
| --- | --- |
| COc1ccc(-c2ccc3c(C(=O)NC(C)(C)COC(=O)CCl)nn(Cc4ccc(Cl)cc4)c3c2)cc1Cl [QW-823] | 0.33 |
| CC(C)(COC(=O)CCl)NC(=O)c1nn(Cc2ccc(Cl)cc2)c2cc(-c3ccc(N4CCOCC4)c(Cl)c3)ccc12 [QW-824] | 0.18 |
| CC(C)Oc1ccc(-c2ccc3c(C(=O)NC(C)(C)COC(=O)CCl)nn(Cc4ccc(Cl)cc4)c3c2)cc1Cl [QW-841] | 0.74 |

What follows are molecules tested on HepG2 cells (assay: Cellular dose response assay, HepG2). Conditions: compounds alone; Table 7; read-out: IC50 (uM) HEPG2^a.
Format: cell-based, human
Source text: as §1, §2

| IC50 [µM] | Compound |
| --- | --- |
| 4.7 | COc1ccc2cc(C(=O)NCC(C)(C)COC(=O)CBr)[nH]c2c1 [QW-303] |

Same assay, conditions: with fer-1; Table 7; read-out: IC50 (uM) HEPG2^b

| IC50 [µM] | Compound |
| --- | --- |
| 12.7 | COc1ccc2cc(C(=O)NCC(C)(C)COC(=O)CBr)[nH]c2c1 [QW-303] |

These molecules were tested on Huh7 cells (assay: Cellular dose response assay, Huh7). Conditions: compounds alone; Table 7; read-out: IC50 (uM) Huh7^a.
Format: cell-based, human
Source text: as §1, §2

| IC50 [µM] | Compound |
| --- | --- |
| 6.3 | COc1ccc2cc(C(=O)NCC(C)(C)COC(=O)CBr)[nH]c2c1 [QW-303] |

Same assay, conditions: with fer-1; Table 7; read-out: IC50 (uM) Huh7^b

| IC50 [µM] | Compound |
| --- | --- |
| 16.8 | COc1ccc2cc(C(=O)NCC(C)(C)COC(=O)CBr)[nH]c2c1 [QW-303] |

Each molecule was assayed on HLF cells (assay: Cellular dose response assay, HLF). Conditions: compounds alone; Table 7; read-out: IC50 (uM) HLF^a.
Format: cell-based, human
Source text: as §1, §2

| IC50 [µM] | Compound |
| --- | --- |
| 2.5 | COc1ccc2cc(C(=O)NCC(C)(C)COC(=O)CBr)[nH]c2c1 [QW-303] |

Same assay, conditions: with fer-1; Table 7; read-out: IC50 (uM) HLF^b

| IC50 [µM] | Compound |
| --- | --- |
| 5.7 | COc1ccc2cc(C(=O)NCC(C)(C)COC(=O)CBr)[nH]c2c1 [QW-303] |

These molecules were tested on SK-HEP-1 cells (assay: Cellular dose response assay, SK-HEP-1). Conditions: compounds alone; Table 7; read-out: IC50 (uM) SKHEP1^a.
Format: cell-based, human
Source text: as §1, §2

| IC50 [µM] | Compound |
| --- | --- |
| 5.1 | COc1ccc2cc(C(=O)NCC(C)(C)COC(=O)CBr)[nH]c2c1 [QW-303] |

Same assay, conditions: with fer-1; Table 7; read-out: IC50 (uM) SKHEP1^b

| IC50 [µM] | Compound |
| --- | --- |
| 17.1 | COc1ccc2cc(C(=O)NCC(C)(C)COC(=O)CBr)[nH]c2c1 [QW-303] |

What follows are molecules tested against T1, GPX4 (Homo sapiens, UniProt P36969) (assay: GPX4 activity assay in cell lysates (NADPH-coupled)). Conditions: not given.
T1 sequence (P36969 1-170 isoform P36969-2): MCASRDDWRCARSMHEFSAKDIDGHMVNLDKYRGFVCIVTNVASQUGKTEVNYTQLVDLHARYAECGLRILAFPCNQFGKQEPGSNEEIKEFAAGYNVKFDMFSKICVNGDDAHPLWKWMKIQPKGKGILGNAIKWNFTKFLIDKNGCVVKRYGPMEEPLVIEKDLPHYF
Format: biochemical
Design: endogenous in cells; host or cells: A-673 cell lysate
Procedure, shortened: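 Native GPX4 in lysates of A-673 cells grown with 20 nM sodium selenite; lysate preincubated with compound 45 min at 37 °C in pH 8.0 buffer with 3 mM GSH, 0.5 mM NADPH and glutathione reductase. Reaction started with phosphatidylcholine hydroperoxide; NADPH consumption followed at 340 nm over 25 min; triplicates.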

| Compound | GPX4 inhibitory activity, result in words |
| --- | --- |
| COc1ccc(-c2ccc3c(C(=O)NC(C)(C)COC(=O)CCl)nn(Cc4ccc(Cl)cc4)c3c2)cc1Cl [QW-823] | greater GPX4 inhibitory activity than QW-446 |
| CC(C)(COC(=O)CCl)NC(=O)c1nn(Cc2ccc(Cl)cc2)c2cc(-c3ccc(N4CCOCC4)c(Cl)c3)ccc12 [QW-824] | greater GPX4 inhibitory activity than QW-446 |
| COc1ccc(-c2ccc3c(C(=O)NC(C)(C)COC(=O)CCl)nn(Cc4cc(Cl)cc(Cl)c4)c3c2)cc1Cl [QW-851] | greater GPX4 inhibitory activity than QW-446 at 2.5 μM concentration |

Same assay, conditions: 2.5 μM; 4th generation

| Compound | GPX4% inhibition at 2.5 μM [%] |
| --- | --- |
| COc1ccc(-c2ccc3c(C(=O)NC(C)(C)COC(=O)CCl)nn(Cc4ccc(Cl)cc4)c3c2)cc1Cl [QW-823] | 95.0 ± 13.1 |
| CC(C)(COC(=O)CCl)NC(=O)c1nn(Cc2ccc(Cl)cc2)c2cc(-c3ccc(N4CCOCC4)c(Cl)c3)ccc12 [QW-824] | 90.5 ± 7.4 |
| CC(C)Oc1ccc(-c2ccc3c(C(=O)NC(C)(C)COC(=O)CCl)nn(Cc4ccc(Cl)cc4)c3c2)cc1Cl [QW-841] | 91.3 ± 2.0 |
| COc1ccc(-c2ccc3c(C(=O)NC(C)(C)COC(=O)CCl)nn(Cc4cc(Cl)cc(Cl)c4)c3c2)cc1Cl [QW-851] | 114.9 ± 23.5 |

Same assay, conditions: 200 μM; generation 1; mean ± s.d., n = 3

| GPX4% inhibition at 200 (μM) [%] | Compound |
| --- | --- |
| 88.7 ± 2.3 | COc1ccc2cc(C(=O)NCC(C)(C)COC(=O)CBr)[nH]c2c1 [QW-303] |
